Measured values: ChEMBL document CHEMBL4396962, “Discovery of novel steroidal histamine H3 receptor antagonists/inverse agonists. Part 2. Versatile steroidal carboxamide derivatives” (Bioorg Med Chem Lett, 2019)
In brackets after ≈: the same amount, converted by molar mass.

Assays:
[1] = biological target: Histamine H3 receptor (Homo sapiens, UniProt Q9Y5N1); test: Displacement of [3H]methyl- N-alpha methylhistamine dihydrochloride from human recombinant H3 receptor expressed in CHOK1 cells measured after 30 mins by liquid scintillation counter method; assay type: cell-based
[2] = biological target: Histamine H3 receptor (Rattus norvegicus, UniProt Q9QYN8); test: Displacement of [3H]methyl- N-alpha methylhistamine dihydrochloride from Sprague-Dawley rat cerebral cortex H3 receptor measured after 30 mins by scintillation counter method
[3] = biological target: Muscarinic acetylcholine receptor; test: Displacement of [3H]quinuclidinyl benzilate from Wistar rat cortex muscarinic acetylcholine receptor by liquid scintillation counter method
[4] = Fraction of drug metabolized in human microsomes; assay type: ADME, Microsome; conditions: read-out: Fm
[5] = Fraction of drug metabolized in rat microsomes; assay type: ADME, Microsome; conditions: read-out: Fm
[6] = biological target: Muscarinic acetylcholine receptor (Rattus norvegicus) (UniProt P08482+P08483+P08485+P08911+P10980); test: Displacement of [3H]quinuclidinyl benzilate from Wistar rat cortex muscarinic acetylcholine receptor at 3 uM by liquid scintillation counter method relative to control
[7] = biological target: Voltage-gated inwardly rectifying potassium channel KCNH2 (Homo sapiens, UniProt Q12809); test: Inhibition of human ERG
[8] = system: Rattus norvegicus; test: In vivo antagonist activity at H3 receptor in po dosed Wistar rat assessed as inhibition of imetit induced dipsogenia preincubated for 30 mins followed by imetit administration at 3 mg/kg,sc; assay type: functional
[9] = Tmax in Wistar rat brain at 10 mg/kg, po measured after 5 hrs by HPLC-MS/MS analysis; assay type: ADME, organism-based
[10] = Ratio of AUC (0 to infinity) in Wistar rat brain to plasma at 10 mg/kg, po measured after 5 hrs by HPLC-MS/MS analysis; assay type: ADME, organism-based
[11] = system: Rattus norvegicus; test: Cognitive enhancement in scopolamine-induced amnesia Wistar rat model assessed as increase in memory retrieval at 3 mg/kg, po with scopolamine treatment for 23 hrs followed by compound administration measured after 1 hr by water labyrinth relative to control; assay type: functional
[12] = Solubility of compound in DMSO; assay type: physicochemical
[13] = Kinetic solubility of compound; assay type: physicochemical; conditions: read-out: Kinetic_solubility
[14] = Lipophilicity, logP of compound; assay type: physicochemical; conditions: octanol/water
[15] = Partition coefficient, logD of compound at pH 7.4; assay type: physicochemical; conditions: octanol/water
[16] = biological target: Histamine H3 receptor (Rattus norvegicus) (UniProt Q9QYN8); test: Displacement of [3H]methyl- N-alpha methylhistamine dihydrochloride from Sprague-Dawley rat cerebral cortex H3 receptor measured after 30 mins by scintillation counter method relative to control
[17] = species: Rattus norvegicus; test: Selectivity index, ratio of Ki for Wistar rat cortex muscarinic acetylcholine receptor to Ki for Sprague-Dawley rat cerebral cortex H3 receptor
[18] = system: Rattus norvegicus; test: In vivo antagonist activity at Wistar rat H3 receptor assessed as inhibition of imetit-induced dipsogenia at 30 mg/kg, po for 30 mins followed by imetit administration at 3 mg/kg, sc, relative to control; assay type: functional
[19] = system: Rattus norvegicus; test: In vivo antagonist activity at H3 receptor in ip dosed Wistar rat assessed as inhibition of imetit induced dipsogenia preincubated for 30 mins followed by imetit administration at 3 mg/kg,sc; assay type: functional

Chain of Histamine H3 receptor (Homo sapiens, UniProt Q9Y5N1) (Q9Y5N1 whole entry): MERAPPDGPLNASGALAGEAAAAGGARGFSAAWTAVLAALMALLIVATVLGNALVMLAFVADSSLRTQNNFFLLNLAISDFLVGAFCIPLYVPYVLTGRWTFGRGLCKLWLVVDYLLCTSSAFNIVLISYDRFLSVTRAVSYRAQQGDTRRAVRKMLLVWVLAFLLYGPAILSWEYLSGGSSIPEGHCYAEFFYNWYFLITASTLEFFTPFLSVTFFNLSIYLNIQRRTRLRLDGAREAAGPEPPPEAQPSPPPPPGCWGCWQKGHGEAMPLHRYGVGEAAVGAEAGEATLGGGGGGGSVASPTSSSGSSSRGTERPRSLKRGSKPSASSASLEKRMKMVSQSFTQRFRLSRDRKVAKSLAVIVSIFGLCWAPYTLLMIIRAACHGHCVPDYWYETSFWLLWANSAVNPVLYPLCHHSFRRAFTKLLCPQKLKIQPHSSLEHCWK
Chain of Voltage-gated inwardly rectifying potassium channel KCNH2 (Q12809 whole entry): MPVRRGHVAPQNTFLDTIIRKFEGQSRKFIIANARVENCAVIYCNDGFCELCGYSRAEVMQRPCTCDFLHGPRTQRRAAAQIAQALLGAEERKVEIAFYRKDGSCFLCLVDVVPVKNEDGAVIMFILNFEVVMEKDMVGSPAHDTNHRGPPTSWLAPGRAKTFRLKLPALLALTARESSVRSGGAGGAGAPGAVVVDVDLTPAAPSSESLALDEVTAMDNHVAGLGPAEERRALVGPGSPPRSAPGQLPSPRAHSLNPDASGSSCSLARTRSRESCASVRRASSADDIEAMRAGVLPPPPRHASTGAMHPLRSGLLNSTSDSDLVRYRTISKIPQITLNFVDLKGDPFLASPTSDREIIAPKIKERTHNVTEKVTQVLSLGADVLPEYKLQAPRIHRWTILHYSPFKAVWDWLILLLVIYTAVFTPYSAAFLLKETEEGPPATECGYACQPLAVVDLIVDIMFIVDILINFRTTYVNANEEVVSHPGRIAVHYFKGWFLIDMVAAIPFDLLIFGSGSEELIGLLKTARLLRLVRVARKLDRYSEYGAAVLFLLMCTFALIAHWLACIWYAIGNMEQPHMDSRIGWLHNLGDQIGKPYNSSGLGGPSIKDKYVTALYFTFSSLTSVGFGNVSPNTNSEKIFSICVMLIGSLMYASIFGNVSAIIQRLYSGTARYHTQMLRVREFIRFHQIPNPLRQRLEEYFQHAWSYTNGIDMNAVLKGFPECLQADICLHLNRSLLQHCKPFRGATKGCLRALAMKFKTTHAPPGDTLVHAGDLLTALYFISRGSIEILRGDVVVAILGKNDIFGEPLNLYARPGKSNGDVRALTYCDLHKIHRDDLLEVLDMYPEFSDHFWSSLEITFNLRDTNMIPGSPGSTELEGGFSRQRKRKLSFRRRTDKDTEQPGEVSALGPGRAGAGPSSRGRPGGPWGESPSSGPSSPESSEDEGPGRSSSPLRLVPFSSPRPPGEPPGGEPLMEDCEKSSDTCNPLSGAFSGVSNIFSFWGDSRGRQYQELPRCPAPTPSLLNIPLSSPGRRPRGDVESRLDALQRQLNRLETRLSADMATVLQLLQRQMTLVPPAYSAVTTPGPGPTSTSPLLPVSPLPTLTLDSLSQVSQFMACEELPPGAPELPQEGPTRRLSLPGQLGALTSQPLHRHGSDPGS
Chain of Histamine H3 receptor (Rattus norvegicus, UniProt Q9QYN8) (Q9QYN8 whole entry): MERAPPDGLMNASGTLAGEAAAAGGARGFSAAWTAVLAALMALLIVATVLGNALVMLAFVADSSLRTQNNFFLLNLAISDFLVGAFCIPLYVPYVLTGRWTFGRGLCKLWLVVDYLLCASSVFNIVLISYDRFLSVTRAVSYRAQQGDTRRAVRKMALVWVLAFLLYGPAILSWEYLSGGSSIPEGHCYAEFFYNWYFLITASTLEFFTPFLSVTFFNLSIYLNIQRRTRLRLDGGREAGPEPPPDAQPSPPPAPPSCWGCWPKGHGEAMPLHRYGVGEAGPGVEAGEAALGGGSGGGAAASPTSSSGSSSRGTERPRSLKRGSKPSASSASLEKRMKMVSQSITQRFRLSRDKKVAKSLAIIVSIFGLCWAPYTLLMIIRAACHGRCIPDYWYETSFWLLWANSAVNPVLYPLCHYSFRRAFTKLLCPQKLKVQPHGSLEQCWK
Chain of Histamine H3 receptor (Rattus norvegicus) (Q9QYN8 whole entry): as above

| Molecule | Ki [1] | Ki [2] | metabolised [4] | metabolised [5] | Activity [6] | IC50 [7] | also measured |
| --- | --- | --- | --- | --- | --- | --- | --- |
| CCNC(=O)[C@H]1CC(=O)[C@@]2(C)CC[C@@H]3c4ccc(OCCCN5CCC(F)(F)CC5)cc4CC[C@H]3[C@H]12 | 1370 nM | – | – | – | – | – | – |
| CCNC(=O)[C@@H]1CC(=O)[C@@]2(C)CC[C@@H]3c4ccc(OCCCN5CCC[C@H]5C)cc4CC[C@H]3[C@H]12 | 43 nM | – | – | – | – | – | – |
| CCNC(=O)[C@@H]1CC(=O)[C@@]2(C)CC[C@@H]3c4ccc(OCCN5CCC[C@@H]5C)cc4CC[C@H]3[C@H]12 | 260 nM | – | – | – | 4% | – | – |
| C[C@@H]1CCCN1CCCOc1ccc2c(c1)CC[C@@H]1[C@@H]2CC[C@]2(C)[C@@H](N3CCCC3=O)CC[C@@H]12 | – | 135 nM | – | – | 51% | – | – |
| CCNC(=O)[C@@H]1CC(=O)[C@@]2(C)CC[C@@H]3c4ccc(OCCCCN5CCC[C@@H]5C)cc4CC[C@H]3[C@H]12 | 234 nM | – | – | – | 17% | – | – |
| CCNC(=O)[C@H]1CC(=O)[C@@]2(C)CC[C@@H]3c4ccc(OCCCN5CC[C@@H](F)C5)cc4CC[C@H]3[C@H]12 | 230 nM | – | – | – | – | – | – |
| N-ethyl-2-((8R,9S,13S,14S,15R,17S)-17-methoxy-13-methyl-3-(3-((R)-2-methylpyrrolidin-1-yl)propoxy)-7,8,9,11,12,13,14,15,16,17-decahydro-6H-cyclopenta[a]phenanthren-15-yl)acetamide | – | – | – | – | 6% | – | – |
| C[C@]12CC[C@@H]3c4ccc(OCCCN5CCCC5)cc4CC[C@H]3[C@@H]1CC[C@@H]2N1CCCC1 | – | – | – | – | – | 7500 nM | Ki [3]: 110 nM; inhibition (INH) [18]: 19%; ED50 [19]: 12 mg/kg |
| CCNC(=O)[C@H]1CC(=O)[C@@]2(C)CC[C@@H]3c4ccc(OCCCN5CCC(F)CC5)cc4CC[C@H]3[C@H]12 | 530 nM | – | – | – | – | – | – |

The remaining molecules from weak to strong by Ki [1], led by results:

| Ki [1] | Ki [2] | metabolised [4] | metabolised [5] | Activity [6] | Molecule | IC50 [7] | also measured |
| --- | --- | --- | --- | --- | --- | --- | --- |
| 34 nM | – | – | – | – | CCN(CC)C(=O)[C@@H]1CC(=O)[C@@]2(C)CC[C@@H]3c4ccc(OCCCN5CCC[C@@H]5C)cc4CC[C@H]3[C@H]12 | – | inhibition [16]: 44% |
| 30 nM | 9 nM | 75% | 85% | 16% | C[C@H]1CCCN1CCCOc1ccc2c(c1)CC[C@H]1[C@@H]3[C@H](C(=O)N4CCCC4)CC(=O)[C@@]3(C)CC[C@H]21 | 80000 nM | ED50 [8]: 0.6 mg/kg |
| 21 nM | – | – | – | – | CCNC(=O)[C@H]1CC(=O)[C@@]2(C)CC[C@@H]3c4ccc(OCCCN5CCC[C@@H]5C)cc4CC[C@H]3[C@H]12 | – | – |
| 10 nM | 39 nM | 85% | 46% | 20% | CC(=O)N[C@@H]1CC(=O)[C@@]2(C)CC[C@@H]3c4ccc(OCCCN5CCC[C@H]5C)cc4CC[C@H]3[C@H]12 | – | – |
| 9 nM | 22 nM | 77% | 85% | – | C[C@]12CC[C@@H]3c4ccc(OCCCN5CCCC5=O)cc4CC[C@H]3[C@@H]1CC[C@@H]2N1CCCC1 | – | Ki [3]: 700 nM |
| 9 nM | 13 nM | 90% | 76% | 27% | C[C@@H]1CCCN1CCCOc1ccc2c(c1)CC[C@H]1[C@@H]3[C@@H](C(=O)NCC4CC4)CC[C@@]3(C)CC[C@H]21 | 4100 nM | – |
| 9 nM | 24 nM | 62% | 66% | 24% | CCNC(=O)[C@H]1CC[C@@]2(C)CC[C@@H]3c4ccc(OCCCN5CCC[C@H]5C)cc4CC[C@H]3[C@H]12 | 4100 nM | ED50 [8]: 2.26 to 2.3 mg/kg |
| 9 nM | 28 nM | 96% | 96% | 7% | CCNC(=O)[C@H]1C[C@H](OC)[C@@]2(C)CC[C@@H]3c4ccc(OCCCN5CCC[C@H]5C)cc4CC[C@H]3[C@H]12 | 11400 nM | ED50 [8]: 2.5 mg/kg |
| 5 nM | 19 nM | 48% | 50% | – | C[C@@H]1CCCN1CCCOc1ccc2c(c1)CC[C@H]1[C@@H]3[C@@H](C(=O)NCC4CCC4)CC[C@@]3(C)CC[C@H]21 | – | Ki [3]: 1708 nM |
| 3 nM | 9 nM | 99% | 99% | – | CCNC(=O)[C@H]1CC(=O)[C@@]2(C)CC[C@@H]3c4ccc(OCCCN5CCC[C@H]5C)cc4CC[C@H]3[C@H]12 | 17500 nM | Ki [3]: 4700 nM; ED50 [8]: 0.47 mg/kg; Tmax [9]: 1 h; Kp at 5 h [10]: 0.24; Activity [11]: 52.3%; solubility [12]: > 50000 µM; solubility kinetic [13]: 250 µM (≈ 117 µg/mL); logP [14]: 4.2; logD [15]: 1.7 |
| 2 nM | 18 nM | – | – | – | C[C@@H]1CCCN1CCCOc1ccc2c(c1)CC[C@@H]1[C@@H]2CC[C@]2(C)[C@@H](C(=O)N3CCCC3)CC[C@@H]12 | – | Ki [3]: 454 nM; Ratio Ki [17]: 25 |
